Experimental findings from ChEMBL document CHEMBL1122964, “Conformational analysis and active site modelling of angiotensin-converting enzyme inhibitors” (J Med Chem, 1985) are described below.

Where a SMILES comes first, the peptide text is derived from it. The star is where a group is joined. Bz = O=C(c1ccccc1)*

The target of assay [1] is T1, Angiotensin-converting enzyme (Homo sapiens, UniProt P12821). In words: Inhibition of Angiotensin I converting enzyme. The settings on record: read-out: I50.
Assay [2] concerns the target T1, Angiotensin-converting enzyme. In words: Compound was evaluated for the inhibition of Angiotensin I converting enzyme.

T1 sequence (P12821 whole entry): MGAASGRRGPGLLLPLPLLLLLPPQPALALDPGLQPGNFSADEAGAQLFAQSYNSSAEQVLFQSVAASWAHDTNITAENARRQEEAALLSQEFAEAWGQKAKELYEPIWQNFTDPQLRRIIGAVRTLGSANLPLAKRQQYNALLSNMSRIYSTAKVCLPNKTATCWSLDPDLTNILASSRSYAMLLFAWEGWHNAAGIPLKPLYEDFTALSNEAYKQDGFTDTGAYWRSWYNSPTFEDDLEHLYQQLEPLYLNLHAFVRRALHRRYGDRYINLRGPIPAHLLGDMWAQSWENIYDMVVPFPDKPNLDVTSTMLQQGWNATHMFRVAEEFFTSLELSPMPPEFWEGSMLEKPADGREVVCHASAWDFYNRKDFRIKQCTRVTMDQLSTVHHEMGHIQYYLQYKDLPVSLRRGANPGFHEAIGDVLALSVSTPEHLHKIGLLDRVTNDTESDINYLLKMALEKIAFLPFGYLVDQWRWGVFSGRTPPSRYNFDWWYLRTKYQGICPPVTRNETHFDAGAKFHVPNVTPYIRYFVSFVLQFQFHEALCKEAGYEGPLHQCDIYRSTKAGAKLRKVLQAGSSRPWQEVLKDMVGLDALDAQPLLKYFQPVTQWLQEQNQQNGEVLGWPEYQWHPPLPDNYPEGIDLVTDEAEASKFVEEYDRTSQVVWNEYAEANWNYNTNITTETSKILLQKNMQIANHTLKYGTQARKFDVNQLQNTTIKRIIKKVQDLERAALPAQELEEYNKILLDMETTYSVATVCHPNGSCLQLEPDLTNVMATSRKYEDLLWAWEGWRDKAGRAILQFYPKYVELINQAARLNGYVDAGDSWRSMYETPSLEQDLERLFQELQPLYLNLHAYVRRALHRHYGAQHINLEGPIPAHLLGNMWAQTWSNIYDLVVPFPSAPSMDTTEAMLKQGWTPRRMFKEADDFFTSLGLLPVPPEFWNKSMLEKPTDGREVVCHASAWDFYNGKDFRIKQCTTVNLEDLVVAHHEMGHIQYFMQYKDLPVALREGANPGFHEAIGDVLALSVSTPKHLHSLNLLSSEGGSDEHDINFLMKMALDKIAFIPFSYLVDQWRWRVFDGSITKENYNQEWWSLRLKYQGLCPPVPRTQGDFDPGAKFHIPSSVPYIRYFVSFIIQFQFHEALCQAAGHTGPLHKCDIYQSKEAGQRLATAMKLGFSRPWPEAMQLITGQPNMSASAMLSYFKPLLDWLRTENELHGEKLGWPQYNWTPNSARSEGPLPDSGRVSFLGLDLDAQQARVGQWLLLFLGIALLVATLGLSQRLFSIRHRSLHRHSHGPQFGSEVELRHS

As to `O=C(O)CN1C(=O)[C@@H](NC(CCc2ccccc2)C(=O)O)CSc2ccccc21` (stereo partly specified), in assay [1], the IC50 was 0.003 µM.

With `C[C@H](NC(=O)[C@H](Cc1ccccc1)NC(=O)c1ccccc1)C(=O)N1CCC[C@H]1C(=O)O` (Bz-Phe-Ala-Pro-OH), the IC50 in assay [1] stood at 0.0032 µM.

`O=C(O)[C@H]1CCCN1C(=O)CCS`: the IC50 in assay [1] came out at 0.2 µM.

For `O=C(O)[C@@H]1CCCN1C(=O)CCS`, the IC50 in assay [1] stood at 1800 µM.

On to `C[C@H](NP(=O)(O)CCc1ccccc1)C(=O)N1CCC[C@H]1C(=O)O`, for which the affinity in assay [2], expressed as Ki, was 0.0005 µM.

Turning to `C[C@@H](NP(=O)(O)O)C(=O)N1CCC[C@H]1C(=O)O`, in assay [2], the Ki – broadly, the dissociation constant of the complex between target and ligand, obtained from inhibition or displacement – amounted to 0.0014 µM.
